Data on 16 compounds can be found in patent US9938261B2, “Heterocyclic compounds and methods of use thereof” (AMBIT BIOSCIENCES CORPORATION, priority 2011, dated 2018).

For experiment [1], the target named is kinase panel containing either 386 or 392 distinct kinases. The experiment in a line: Kinase selectivity score S10 from competition binding panel. The protocol: Competition binding assays used herein were developed, validated and performed as described in Fabian et al., Nature Biotechnology 2005, 23, 329-336. Kinases were produced as fusions to T7 phage (See, Fabian et al. or WO04/015142) or alternatively, the kinases were expressed in HEK-293 cells and subsequently tagged with DNA for PCR detection (See, WO08/005310). For the binding assays, streptavidin-coated magnetic beads were treated with biotinylated affinity ligands for 30 min at room temperature to generate affinity resins. The liganded beads were blocked with excess biotin and washed with blocking buffer (SeaBlock (Pierce), 1% BSA, 0.05% Tween 20, 1 mM DTT) to remove unbound ligand and to reduce non-specific binding. Binding reactions were assembled by combining kinase, liganded affinity beads, and test compounds in 1× binding buffer (20% SeaBlock, 0.17×PBS, 0.05% Tween 20, 6 mM DTT). Test compounds were prepared as 100× stocks in DMSO and diluted into the aqueous environment. Kds were determined using an eleven point threefold serial dilutions. DMSO or control compounds were was added to control assays lacking a test compound. Primary screen assays were performed in polypropylene 384-well plates in a final volume of 20-40 μL, while Kd determinations were performed in polystyrene 96-well plates in a final volume of 135 μL. The assay plates were incubated at room temperature with shaking for 1 hour to allow the binding reactions to reach equilibrium, and the affinity beads were washed extensively with wash buffer (1×PBS, 0.05% Tween 20) to remove unbound protein. The beads were then resuspended in elution buffer (1×PBS, 0.05% Tween […] non-biotinylated affinity ligand) and incubated at room temperature with shaking for 30 min. The kinase concentration in the eluates was measured by quantitative PCR.
A selectivity score (S10) is a quantitative measure of selectivity of a compound against a panel of kinases. An S10 was calculated for a compound by dividing the number of kinases found to have a percent of control (DMSO) less than 10 by the total number of distinct kinases tested (excluding mutant variants). Percent of control (POC) is calculated by subtracting the signal of the control compound (POC=0) from the signal of the test compound and dividing the outcome by the signal of DMSO (POC=100) minus the signal of the control compound. For the compounds disclosed herein, S10 scores were obtained by testing the compounds at 10 μM concentration in a kinase panel containing either 386 or 392 distinct kinases.

Experiment [2] deals with T1, CSF1R (Homo sapiens, UniProt P07333). The experiment can be described thus: Competition binding assay, CSF1R Kd. The arrangement: made in house. In a few lines: (§1)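 Kinases, either T7 phage fusions or HEK-293-expressed and DNA-tagged, competed with test compounds for immobilized biotinylated affinity ligand on streptavidin beads in binding buffer (20% SeaBlock, 0.17×PBS, 0.05% Tween 20, 6 mM DTT). After 1 hour at room temperature, bead-bound kinase was eluted and quantified by qPCR; Kd from eleven-point threefold dilutions.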

The target in experiment [3] is T1, CSF1R. The experiment in a line: HEK293 CSF1R phosphorylation MSD assay. The format is cell-based. Also on record: expressed in transfected cells; host or cells: HEK293. The note with it: read-out: HEK293 pCSF1R M-CSF MSD:IC50. In a few lines: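 HEK293 cells expressing CSF1R-FKBP were pretreated 2 h at 37° C with 9 half-log concentrations of compound (0.5% DMSO final), then stimulated 5 min with 50 ng/mL human M-CSF. Lysates captured on biotin-FK506 plates; phosphotyrosine detected by MSD electrochemiluminescence. IC50 versus DMSO, averaged from duplicate plates.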

For a further experiment, the target named is T2, KIT (Homo sapiens, UniProt P10721).
T2 construct: made in house
The experiment in a line: Competition binding assay, KIT Kd. Summed up: as §1

The target of a further experiment is T3, PDGFRβ (Homo sapiens, UniProt P09619).
T3 construct: made in house
The experiment can be described thus: Competition binding assay, PDGFRβ Kd. Summed up: as §1

The mark [4] stands for this setting: compounds at 10 μM, 386 or 392 distinct kinases.
Where [5] appears, read: 2 h compound, human M-CSF 50 ng/mL for 5 min.
The mark [6] stands for this setting: 10 μM, panel of 386 or 392 distinct kinases.
Setting [7] is: HEK293 cells, M-CSF stimulated CSF1R phosphorylation, MSD.

SMILES strings stand for the structures. Counter-ions that a name gives are not always drawn. Like-named read-outs stand apart in the source and are kept apart here. Where only a bound is given, the exact number is not on record here.

T1 sequence (P07333 20-972): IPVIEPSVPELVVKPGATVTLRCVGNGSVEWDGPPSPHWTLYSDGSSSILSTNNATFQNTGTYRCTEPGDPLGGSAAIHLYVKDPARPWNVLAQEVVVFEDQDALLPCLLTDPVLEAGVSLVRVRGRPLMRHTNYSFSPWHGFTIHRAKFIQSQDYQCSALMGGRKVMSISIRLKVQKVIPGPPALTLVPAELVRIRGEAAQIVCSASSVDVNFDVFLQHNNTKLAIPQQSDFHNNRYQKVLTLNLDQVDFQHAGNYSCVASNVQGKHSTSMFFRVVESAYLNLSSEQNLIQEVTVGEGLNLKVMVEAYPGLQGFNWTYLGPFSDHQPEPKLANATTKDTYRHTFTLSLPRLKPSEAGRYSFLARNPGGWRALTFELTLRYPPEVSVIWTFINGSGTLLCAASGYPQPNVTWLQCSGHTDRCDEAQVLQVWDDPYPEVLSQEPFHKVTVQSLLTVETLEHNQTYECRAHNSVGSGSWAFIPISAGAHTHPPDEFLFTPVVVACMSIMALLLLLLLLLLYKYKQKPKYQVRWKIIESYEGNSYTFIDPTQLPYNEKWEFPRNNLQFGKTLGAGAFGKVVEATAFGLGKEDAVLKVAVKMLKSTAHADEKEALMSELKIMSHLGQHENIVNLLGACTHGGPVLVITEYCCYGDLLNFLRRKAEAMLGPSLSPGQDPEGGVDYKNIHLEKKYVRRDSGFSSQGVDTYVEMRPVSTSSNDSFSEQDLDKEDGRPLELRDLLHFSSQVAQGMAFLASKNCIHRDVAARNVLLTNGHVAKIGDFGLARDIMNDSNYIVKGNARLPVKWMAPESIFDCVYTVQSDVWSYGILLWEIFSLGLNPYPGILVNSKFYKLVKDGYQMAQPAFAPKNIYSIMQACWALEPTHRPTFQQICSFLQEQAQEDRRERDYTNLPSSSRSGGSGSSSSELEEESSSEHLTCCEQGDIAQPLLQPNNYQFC
T2 sequence (P10721 26-976): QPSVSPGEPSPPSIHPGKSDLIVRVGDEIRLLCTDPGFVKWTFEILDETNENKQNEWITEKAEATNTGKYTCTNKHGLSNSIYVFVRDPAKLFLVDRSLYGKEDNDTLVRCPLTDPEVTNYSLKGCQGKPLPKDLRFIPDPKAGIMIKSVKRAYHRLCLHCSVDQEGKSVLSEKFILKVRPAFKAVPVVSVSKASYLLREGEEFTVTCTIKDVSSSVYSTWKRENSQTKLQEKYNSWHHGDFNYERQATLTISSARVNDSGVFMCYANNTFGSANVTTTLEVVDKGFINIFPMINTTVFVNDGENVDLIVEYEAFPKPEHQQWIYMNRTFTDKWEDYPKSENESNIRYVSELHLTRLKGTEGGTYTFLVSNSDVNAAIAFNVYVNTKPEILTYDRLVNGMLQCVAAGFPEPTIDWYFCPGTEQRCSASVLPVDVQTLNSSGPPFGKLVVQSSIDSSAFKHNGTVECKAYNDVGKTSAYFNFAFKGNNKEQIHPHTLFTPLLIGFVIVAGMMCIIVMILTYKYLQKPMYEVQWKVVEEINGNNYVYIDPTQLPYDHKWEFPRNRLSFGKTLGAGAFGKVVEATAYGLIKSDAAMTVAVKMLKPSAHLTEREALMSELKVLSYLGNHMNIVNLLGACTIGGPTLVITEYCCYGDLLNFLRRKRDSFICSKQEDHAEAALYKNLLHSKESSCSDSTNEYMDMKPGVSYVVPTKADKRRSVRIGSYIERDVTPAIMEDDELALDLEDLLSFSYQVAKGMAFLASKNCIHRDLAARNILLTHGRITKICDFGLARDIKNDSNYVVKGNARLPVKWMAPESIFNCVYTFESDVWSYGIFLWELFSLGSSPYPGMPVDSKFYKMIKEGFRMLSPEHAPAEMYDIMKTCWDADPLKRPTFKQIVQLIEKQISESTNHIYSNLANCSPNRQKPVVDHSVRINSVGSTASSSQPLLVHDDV
T3 sequence (P09619 33-1106): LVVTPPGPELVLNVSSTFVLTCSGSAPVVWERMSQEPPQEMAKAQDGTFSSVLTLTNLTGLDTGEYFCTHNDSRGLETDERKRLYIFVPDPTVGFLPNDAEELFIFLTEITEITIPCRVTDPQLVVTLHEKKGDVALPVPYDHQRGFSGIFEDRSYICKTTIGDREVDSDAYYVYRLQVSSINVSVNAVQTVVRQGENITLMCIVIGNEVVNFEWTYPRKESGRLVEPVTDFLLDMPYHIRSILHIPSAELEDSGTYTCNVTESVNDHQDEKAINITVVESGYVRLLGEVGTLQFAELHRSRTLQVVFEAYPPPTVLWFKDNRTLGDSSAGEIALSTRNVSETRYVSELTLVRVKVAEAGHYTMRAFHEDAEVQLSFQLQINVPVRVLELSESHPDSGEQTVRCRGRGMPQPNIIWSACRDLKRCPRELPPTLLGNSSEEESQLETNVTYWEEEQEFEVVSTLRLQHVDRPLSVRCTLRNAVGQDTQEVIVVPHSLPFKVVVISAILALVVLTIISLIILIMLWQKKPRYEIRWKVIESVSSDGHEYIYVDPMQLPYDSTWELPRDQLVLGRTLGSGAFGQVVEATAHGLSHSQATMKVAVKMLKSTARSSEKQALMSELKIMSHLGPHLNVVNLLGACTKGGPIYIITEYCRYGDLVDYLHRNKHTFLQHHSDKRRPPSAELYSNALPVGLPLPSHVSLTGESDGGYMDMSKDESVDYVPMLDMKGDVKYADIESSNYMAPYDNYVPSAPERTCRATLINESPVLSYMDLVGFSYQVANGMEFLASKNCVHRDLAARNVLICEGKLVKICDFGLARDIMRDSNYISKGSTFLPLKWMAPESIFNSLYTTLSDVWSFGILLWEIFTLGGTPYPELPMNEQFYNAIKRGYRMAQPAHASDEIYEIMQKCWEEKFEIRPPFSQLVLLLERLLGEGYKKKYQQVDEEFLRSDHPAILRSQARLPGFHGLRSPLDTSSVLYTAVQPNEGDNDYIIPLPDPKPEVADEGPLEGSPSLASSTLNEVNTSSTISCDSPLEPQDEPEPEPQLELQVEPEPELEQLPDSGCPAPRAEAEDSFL

For `O[C@@H]1Cc2ccccc2[C@H]1Nc1nc2ccc(Cn3cnc4cc(Br)cnc43)cc2s1` [Example 42, (1R,2R)-1-((6-((6-bromo-3H-imidazo[4,5-b]pyridin-3-yl)methyl)benzo[d]thiazol-2-yl)amino)-2,3-dihydro-1H-inden-2-ol], in experiment [1] (setting [4]), the “Kinase specificity S(10)” value is “B (0.01<B≤0.02)”. In addition, the Kd – broadly, a measure of binding affinity in units of concentration – at CSF1R [2] is at most 5 nM; at KIT, at most 100 nM; on PDGFRβ, at most 50 nM. Further, the IC50 (commonly the midpoint of a concentration-inhibition curve) on CSF1R [3] (setting [5]) was 50 to 200 nM.
As to `N#CCOc1ccc2c(c1)ncn2Cc1ccc2nc(N[C@@H]3CCCC[C@H]3O)sc2c1` [Example 196, 2-((1-((2-(((1R,2R)-2-hydroxycyclohexyl)amino)benzo[d]thiazol-6-yl)methyl)-1H-benzo[d]imidazol-5-yl)oxy)acetonitrile], the “Kinase specificity S(10)” value in experiment [1] (setting [6]) is given as “A (A≤0.01)”. For the same compound, the figures for the Kd on CSF1R [2] (competition binding), on KIT (competition binding) and at PDGFRβ (competition binding) were at most 5 nM, 100 to 500 nM and 50 to 500 nM, respectively. Besides, the IC50 on CSF1R [3] (setting [7]) is at most 50 nM.
For `O[C@@H]1CCCC[C@H]1Nc1nc2ccc(Cn3cnc4cc(N5CCOCC5)ccc43)cc2s1` [Example 209, (1R,2R)-2-((6-((5-morpholino-1H-benzo[d]imidazol-1-yl)methyl)benzo[d]thiazol-2-yl)amino)cyclohexanol], in that order: “A (A≤0.01)”, 5 to 20 nM, 100 to 500 nM, 50 to 500 nM and 50 to 200 nM.
As to `Cn1cc(-c2cn(Cc3ccc4nc(N[C@@H]5CCCC[C@H]5O)oc4c3)cn2)cn1` [Example 77, (1R,2R)-2-((6-((4-(1-methyl-1H-pyrazol-4-yl)-1H-imidazol-1-yl)methyl)benzo[d]oxazol-2-yl)amino)cyclohexanol], the “Kinase specificity S(10)” value in experiment [1] (setting [4]) is recorded as “A (A≤0.01)”. Besides, the Kd fell in the range of 5 to 20 nM at CSF1R [2], 500 to 2000 nM at KIT and 500 to 2000 nM on PDGFRβ. Moreover, the IC50 on CSF1R [3] (setting [5]) fell in the range of 50 to 200 nM.
On to `O[C@@H]1CCCC[C@H]1Nc1nc2ccc(Cn3cnc4cc(Br)ccc43)cc2s1` [Example 100, (1R,2R)-2-((6-((5-bromo-1H-benzo[d]imidazol-1-yl)methyl)benzo[d]thiazol-2-yl)amino)cyclohexanol], for which, in experiment [1] (setting [4]), the “Kinase specificity S(10)” value is “A (A≤0.01)”. Further, the Kd lay in the range of 5 to 20 nM on CSF1R [2], 100 to 500 nM at KIT and 50 to 500 nM at PDGFRβ. The IC50 at CSF1R [3] (setting [5]) was 50 to 200 nM.
In the same order, the values of `COc1cc2ncn(Cc3ccc4nc(N[C@@H]5CCCC[C@H]5O)sc4c3)c2cc1C#N` [Example 53, 1-((2-(((1R,2R)-2-hydroxycyclohexyl)amino)benzo[d]thiazol-6-yl)methyl)-5-methoxy-1H-benzo[d]imidazole-6-carbonitrile] are “B (0.01<B≤0.02)”, 5 to 20 nM, 100 to 500 nM, 50 to 500 nM and at most 50 nM.
Consider `O[C@@H]1CCCC[C@H]1Nc1nc2ccc(Cn3cnc4cc(C(F)(F)F)cnc43)cc2s1` [Example 212, (1R,2R)-2-((6-((6-(trifluoromethyl)-3H-imidazo[4,5-b]pyridin-3-yl)methyl)benzo[d]thiazol-2-yl)amino)cyclohexanol], for which, in experiment [1] (setting [6]), the “Kinase specificity S(10)” value is on record as “A (A≤0.01)”. In addition, the results for the Kd at CSF1R [2] (competition binding), at KIT (competition binding) and on PDGFRβ (competition binding) were 5 to 20 nM, at most 100 nM and at most 50 nM, respectively. Further, the IC50 at CSF1R [3] (setting [7]) fell in the range of 50 to 200 nM.
In the same order, the values of `O[C@@H]1CCCC[C@H]1Nc1nc2ccc(Cn3cnc4cc(C5=CCOCC5)cc(F)c43)cc2s1` [Example 208, (1R,2R)-2-((6-((5-(3,6-dihydro-2H-pyran-4-yl)-7-fluoro-1H-benzo[d]imidazol-1-yl)methyl)benzo[d]thiazol-2-yl)amino)cyclohexanol] are “B (0.01<B≤0.02)”, at most 5 nM, at most 100 nM, at most 50 nM and 50 to 200 nM.
In the case of `O[C@@H]1CCCC[C@H]1Nc1nc2ccc(Cn3cnc4cc(Br)cnc43)cc2o1` [Example 61, (1R,2R)-2-((6-((6-bromo-3H-imidazo[4,5-b]pyridin-3-yl)methyl)benzo[d]oxazol-2-yl)amino)cyclohexanol], the “Kinase specificity S(10)” value in experiment [1] (setting [4]) is reported as “C (C>0.02)”. The Kd on CSF1R [2] was 5 to 20 nM; at KIT it was at most 100 nM; on PDGFRβ it was at most 50 nM. Moreover, at CSF1R [3] (setting [5]), the IC50 is at most 50 nM.
Consider `O[C@@H]1CCCC[C@H]1Nc1nc2ccc(Cc3cnc4[nH]c5ccccc5n34)cc2s1` [Example 205, (1R,2R)-2-((6-((9H-benzo[d]imidazo[1,2-a]imidazol-3-yl)methyl)benzo[d]thiazol-2-yl)amino)cyclohexanol], for which the “Kinase specificity S(10)” value in experiment [1] (setting [6]) was “B (0.01<B≤0.02)”. In addition, the Kd on CSF1R [2] (competition binding) was 5 to 20 nM; at KIT (competition binding), 500 to 2000 nM; on PDGFRβ (competition binding) it was 50 to 500 nM. The IC50 at CSF1R [3] (setting [7]) was over 500 nM.
For `Nc1nccn(Cc2ccc3nc(N[C@@H]4CCCC[C@H]4O)sc3c2)c1=O` [Example 220, 3-amino-1-((2-(((1R,2R)-2-hydroxycyclohexyl)amino)benzo[d]thiazol-6-yl)methyl)pyrazin-2(1H)-one acetate salt], in experiment [1] (setting [6]), the “Kinase specificity S(10)” value was “A (A≤0.01)”. In addition, the Kd at CSF1R [2] (competition binding) was 20 to 50 nM; on KIT (competition binding), over 2000 nM; on PDGFRβ (competition binding), 50 to 500 nM. Further, the IC50 at CSF1R [3] (setting [7]) was over 500 nM.
For `CC(O)c1ccn2c(Cc3ccc4nc(N[C@@H]5CCCC[C@H]5O)sc4c3)cnc2c1` (stereo partly drawn) [Example 201, (1R,2R)-2-((6-((7-(1-hydroxyethyl)imidazo[1,2-a]pyridin-3-yl)methyl)benzo[d]thiazol-2-yl)amino)cyclohexanol], in that order: “A (A≤0.01)”, 20 to 50 nM, 500 to 2000 nM, 500 to 2000 nM and 200 to 500 nM.
In the case of `N#Cc1cnc2c(c1)ncn2Cc1ccc2nc(N[C@@H]3CCCC[C@H]3O)sc2c1` [Example 43, 3-((2-(((1R,2R)-2-hydroxycyclohexyl)amino)benzo[d]thiazol-6-yl)methyl)-3H-imidazo[4,5-b]pyridine-6-carbonitrile], the “Kinase specificity S(10)” value in experiment [1] (setting [4]) is recorded as “B (0.01<B≤0.02)”. In addition, the dissociation constant Kd fell in the range of 5 to 20 nM at CSF1R [2], 100 to 500 nM on KIT and 50 to 500 nM on PDGFRβ. The IC50 at CSF1R [3] (setting [5]) was 50 to 200 nM.
In the same order, the values of `O[C@@H]1CCCC[C@H]1Nc1nc2ccc(Cc3cnc4ccccn34)cc2s1` [Example 38, (1R,2R)-2-((6-(imidazo[1,2-a]pyridin-3-ylmethyl)benzo[d]thiazol-2-yl)amino)cyclohexanol] are “A (A≤0.01)”, 20 to 50 nM, 500 to 2000 nM, over 2000 nM and 200 to 500 nM.
For the compound `O[C@@H]1Cc2ccccc2[C@H]1Nc1nc2ccc(Cn3cnc4cc(Br)cnc43)cc2o1` [Example 62, (1R,2R)-1-((6-((6-bromo-3H-imidazo[4,5-b]pyridin-3-yl)methyl)benzo[d]oxazol-2-yl)amino)-2,3-dihydro-1H-inden-2-ol], in experiment [1] (setting [4]), the “Kinase specificity S(10)” value is reported as “C (C>0.02)”. Besides, the Kd is at most 5 nM at CSF1R [2], at most 100 nM at KIT and at most 50 nM at PDGFRβ. In addition, at CSF1R [3] (setting [5]), the IC50 is at most 50 nM.
For `O[C@@H]1CCCC[C@H]1Nc1nc2ccc(Cn3cnc4ccc(Br)cc43)cc2s1` [Example 107, (1R,2R)-2-((6-((6-bromo-1H-benzo[d]imidazol-1-yl)methyl)benzo[d]thiazol-2-yl)amino)cyclohexanol], the “Kinase specificity S(10)” value in experiment [1] (setting [6]) is reported as “B (0.01<B≤0.02)”. Also, the Kd on CSF1R [2] (competition binding) lay within 5 to 20 nM; on KIT (competition binding), 100 to 500 nM; at PDGFRβ (competition binding), 50 to 500 nM. For the same compound, the IC50 at CSF1R [3] (setting [7]) was 50 to 200 nM.
